# Biological target: T1, human MCHR1 (Homo sapiens, UniProt Q99705)
# T1 construct: host or cells: CHO
# Test: Cyclic AMP assay (MCHR-1 functional antagonism)
# Format: cell-based
# Conditions: CHO cells stably expressing human MCHR1; cAMP accumulation with 25 uM forskolin and 0.2 nM MCH, 90 min; Ki from IC50 by Cheng-Prusoff; read-out: MCHR-1 functional Ki
# Method: CHO cell lines stably expressing the human MCHR1 (Euroscreen, Brussels, Belgium) were maintained in DMEM containing Glutamax (Invitrogen, Carlsbad, Calif.), 10% FBS, 400 ug/ml Geneticin.
# Cyclic AMP assays. CHO cells stably expressing the human MCHR1 receptors were collected and resuspended at a density of 4.0×10^6 cells/ml in F12 (Hams) media and seeded (20,000 cells per well) into 384-well, solid white Greiner assay plates. […] Cells were incubated at 37° C./5% CO2 for 90 minutes and cAMP accumulation subsequently determined by DiscoveRx Hithunter c-AMP II Assay kit (GE Healthcare, Buckinghamshire, UK) in accordance with manufactures instructions. Luminescence was measured on a LEADseaker imaging system (GE Healthcare, Buckinghamshire, UK). IC50 values were calculated from dose-response data fit using an in-house computer graphics and statistics program.
# T1 sequence (Q99705 whole entry): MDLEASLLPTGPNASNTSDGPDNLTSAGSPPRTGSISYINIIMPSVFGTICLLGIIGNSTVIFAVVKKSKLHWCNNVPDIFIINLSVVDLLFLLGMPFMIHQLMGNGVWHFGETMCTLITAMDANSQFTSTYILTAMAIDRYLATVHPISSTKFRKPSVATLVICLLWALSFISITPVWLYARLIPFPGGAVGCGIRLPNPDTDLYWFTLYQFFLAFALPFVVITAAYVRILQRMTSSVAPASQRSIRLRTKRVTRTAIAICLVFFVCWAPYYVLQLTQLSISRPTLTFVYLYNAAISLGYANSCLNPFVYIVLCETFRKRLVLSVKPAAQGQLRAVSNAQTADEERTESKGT
row,Compound,Ki
1,"CCN(C(=O)OC(C)(C)C)[C@@H]1CCN(c2ccc(-n3ccc(OCc4ccccc4)cc3=O)cn2)C1 [Example 23a, tert-Butyl {(3R)-1-[4-(benzyloxy)-2-oxo-2H-1,3′-bipyridin-6′-yl]pyrrolidin-3-yl}ethylcarbamate]",15.7 nM
2,O=C1CCCN1[C@H]1CCN(c2ccc(-n3ccc(OCc4ccccc4)cc3=O)cn2)C1 [Example 27],71.4 nM
3,COC(=O)N[C@H]1CCN(c2ccc(-n3ccc(OCc4ccc(F)cc4)cc3=O)cn2)C1 [Example 186],29.8 nM
4,O=c1cc(OCc2ccc(F)cc2)ccn1-c1ccc(N2CC(N3CCC3)C2)nc1 [Example 96],195 nM
5,O=c1cc(OCc2ccccc2)ccn1-c1ccc(N2CC3CCC(C2)N3)nc1 [Example 220],513 nM
6,CO[C@@H]1CCN(c2ccc(-n3ccc(OCc4ccccc4)cc3=O)cn2)C1 [Example 235],10.9 nM
7,CCO[C@@H]1CCN(c2ccc(-n3ccc(OCc4ccccc4)cc3=O)cn2)C1 [Example 39],42 nM
8,CC(C)N1C[C@H]2CN(c3ccc(-n4ccc(OCc5ccccc5)cc4=O)cn3)C[C@H]2C1 [Example 209],10.6 nM
9,CC(=O)N[C@H]1CCN(c2ccc(-n3ccc(OCc4ccccc4)cc3=O)cn2)C1 [Example 162],30.9 nM
10,CC(C)C1CN(c2ccc(-n3ccc(OCc4ccccc4)cc3=O)cn2)CCN1 (stereo not shown) [Example 70],102 nM
11,CC(=O)N[C@H]1CCN(c2ccc(-n3ccc(OCc4ccc(Cl)cc4)cc3=O)cn2)C1 [Example 174],26.2 nM
12,COC(=O)N[C@H]1CCN(c2ccc(-n3ccc(OCc4ccc(Cl)cc4)cc3=O)cn2)C1 [Example 194],46.6 nM
13,"CN(C)C(=O)C1CCN(c2ccc(-n3ccc(OCc4ccccc4)cc3=O)cn2)C1 (single isomer, unassigned) [Example 25b, 1-[4-(Benzyloxy)-2-oxo-2H-1,3′-bipyridin-6′-yl]-N,N-dimethylpyrrolidine-3-carboxamide]",69.6 nM
14,CN[C@H]1CCN(c2ccc(-n3ccc(OCc4ccccc4Cl)cc3=O)cn2)C1 [Example 151],6.04 nM
15,O=c1cc(OCc2ccccc2)ccn1-c1ccc(N2CC3CCC(C2)N3)nc1 [Example 69],124 nM
16,CN[C@H]1CCN(c2ccc(-n3ccc(OCc4ccc(F)c(F)c4)cc3=O)cn2)C1 [Example 150],3.47 nM
17,"CCN1CCN(c2ccc(-n3ccc(OCc4ccccc4)cc3=O)cn2)CC1 [Example 7, 4-(Benzyloxy)-6′-(4-ethylpiperazin-1-yl)-2H-1,3′-bipyridin-2-one]",87.1 nM
18,"CN(C(=O)OC(C)(C)C)[C@H]1CCN(c2ccc(-n3ccc(CCc4ccccc4)cc3=O)cn2)C1 [Example 32, tert-Butyl methyl{(3S)-1-[2-oxo-4-(2-phenylethyl)-2H-1,3′-bipyridin-6′-yl]pyrrolidin-3-yl}-carbamate]",18.3 nM
19,CN(C)[C@@H]1CCN(c2ccc(-n3ccc(OCc4ccccc4)cc3=O)cn2)C1 [Example 56],3.69 nM
20,CCC(=O)N1CCN(c2ccc(-n3ccc(OCc4ccccc4)cc3=O)cn2)CC1 [Example 167],749 nM
21,CCN(C(=O)OC)[C@@H]1CCN(c2ccc(-n3ccc(OCc4ccccc4)cc3=O)cn2)C1 [Example 178],19.2 nM
22,CCN(C(C)=O)[C@@H]1CCN(c2ccc(-n3ccc(OCc4ccccc4)cc3=O)cn2)C1 [Example 160],26.8 nM

# Source: patent US20080085884A1, “Melanin Concentrating Hormone Receptor-1 Antagonist Pyridinones” (Pfizer Inc, priority 2006, published 2008)
